Experimental data as given in patent US11946094B2, “Combination therapies and methods of use thereof” (Augusta University Research Institute, Inc., priority 2017, dated 2024).

test system: OVCAR-8 cells; assay: Drug-siRNA combination screen: 346-compound anticancer library at 100 nM, CCK-8 viability; conditions: not given

For `CC[C@H](CO)Nc1nc(NCc2ccccc2)c2ncn(C(C)C)c2n1` [Seliciclib], the “Score (sum of observed SD values for 18 genes)” value was −1.72 SD.

same assay, conditions: OVCAR-8; drug 100 nM plus siRNA knockdown of each of 18 genes; distance VAB−VA×VB in SD; single gene contributes at most +5 / −5; negative = synergy, positive = antagonism

Compared with `Cl.Cl.Fc1cc(-c2cccc3ncc(-c4cnn(C5CCNCC5)c4)nc23)cc(F)c1CN1CCOCC1` [NVP-BSK805 2HCI], `c1ccc(-c2nn3c(c2-c2ccnc4cc(OCCN5CCOCC5)ccc24)CCC3)nc1` [LY2109761] is higher in “Score (sum of observed SD values for 18 genes)” value: −43.77 SD for the first, −40.45 SD for the second.

Compared with `Nc1ccccc1NC(=O)c1ccc(CNC(=O)OCc2cccnc2)cc1` [Entinostat], `O=C(Cc1ccc(-c2ccc(OCCN3CCOCC3)cc2)cn1)NCc1ccccc1` [KX2-391] is higher in “Score (sum of observed SD values for 18 genes)” value: 12.38 SD for the first, 13.4 SD for the second.

Compared with `CCN(CC)CCCCNc1ncc2cc(-c3cc(OC)cc(OC)c3)c(NC(=O)NC(C)(C)C)nc2n1` [PD173074], `CCN(CCCOc1ccc2c(Nc3cc(CC(=O)Nc4cccc(F)c4)n[nH]3)ncnc2c1)CCOP(=O)(O)O` [Barasertib] is higher in “Score (sum of observed SD values for 18 genes)” value: −46.63 SD for the first, 20.03 SD for the second.

Compared with `Cc1c(C(=O)Nc2ccc(N3C[C@@H](C)O[C@@H](C)C3)nc2)cccc1-c1ccc(OC(F)(F)F)cc1` [Erismodegib], `O=C(Nc1cccnc1)N1CCC(Cc2cccc(Oc3ccc(C(F)(F)F)cn3)c2)CC1` [PF-3845] is lower in “Score (sum of observed SD values for 18 genes)” value: 3.22 SD for the first, -51.78 SD for the second.

Going from `C/C(=C\c1csc(C)n1)[C@@H]1C[C@@H]2O[C@]2(C)CCC[C@H](C)[C@H](O)[C@@H](C)C(=O)C(C)(C)[C@@H](O)CC(=O)O1` [Epothilone B] to `C=C1/C(=C\C=C2/CCC[C@]3(C)[C@@H]([C@H](C)/C=C/[C@H](C)C(C)C)CC[C@@H]23)C[C@@H](O)C[C@@H]1O` [Doxercalciferol], the “Score (sum of observed SD values for 18 genes)” value falls from 17.57 SD to −0.53 SD.

Compared with `CO[C@H]1C[C@@H]2CC[C@@H](C)[C@@](O)(O2)C(=O)C(=O)N2CCCC[C@H]2C(=O)O[C@H]([C@H](C)C[C@@H]2CC[C@@H](OC(=O)C(C)(CO)CO)[C@H](OC)C2)CC(=O)[C@H](C)/C=C(\C)[C@@H](O)[C@@H](OC)C(=O)[C@H](C)C[C@H](C)/C=C/C=C/C=C/1C` [Temsirolimus], `COc1cc(N2CCC(N3CCN(C)CC3)CC2)ccc1Nc1ncc(Cl)c(Nc2ccccc2S(=O)(=O)C(C)C)n1` [TAE684] is higher in “Score (sum of observed SD values for 18 genes)” value: -56.85 SD for the first, −35.61 SD for the second.

Going from `Cl.Nc1ccn([C@@H]2O[C@H](CO)[C@@H](O)C2(F)F)c(=O)n1` [Gemcitibine HCI] to `CCC1(c2ccc(N)cc2)CCC(=O)NC1=O` (centres unmarked) [Aminoglutethimide], the “Score (sum of observed SD values for 18 genes)” value falls from 35.88 SD to −9.32 SD.

Compared with `CC(=O)Nc1cccc(-n2c(=O)n(C3CC3)c(=O)c3c(Nc4ccc(I)cc4F)n(C)c(=O)c(C)c32)c1` [Trametinib], `Cn1c(=O)c(F)c(Nc2ccc(I)cc2F)c2c(=O)n(C[C@@H](O)CO)cnc21` [TAK-733] is lower in “Score (sum of observed SD values for 18 genes)” value: −27.77 SD for the first, −40.08 SD for the second.

First: CC(C)n1nc(-c2ccc3oc(N)nc3c2)c2c(N)ncnc21 [INK 128]
Second: OCCn1cc(-c2ccc3c(c2)CC/C3=N\O)c(-c2ccncc2)n1 [GDC - 0879]
The “Score (sum of observed SD values for 18 genes)” value of the first is lower: −44.98 SD for the first, 23.19 SD for the second.

Compared with `CCCC(CCC)C(=O)[O-].[Na+]` [Sodium valproate], `CC(C)C[C@H](NC(=O)CNC(=O)c1cc(Cl)ccc1Cl)B1OC(=O)C(CC(=O)O)(CC(=O)O)O1` [MLN9708] is lower in “Score (sum of observed SD values for 18 genes)” value: −17.88 SD for the first, −34 SD for the second.

Compared with `CC(C)(C)c1cnc(CSc2cnc(NC(=O)C3CCNCC3)s2)o1` [SNS-032], `COc1cc2nccc(Oc3ccc(NC(=O)Nc4cc(C)on4)c(Cl)c3)c2cc1OC` [Tivozanib] is higher in “Score (sum of observed SD values for 18 genes)” value: -62.71 SD for the first, −16.34 SD for the second.

same assay, conditions: OVCAR-8; drug 100 nM; panel of 18 siRNA knockdowns

`Nc1ccccc1NC(=O)c1ccc(CNC(=O)OCc2cccnc2)cc1` [Entinostat] was tested, and the “synergy / antagonism of drug with gene knockdowns, in words” value (from here on “synergy / antagonism of drug”) was “frequently antagonized by knockdown of specific genes”.
With `CCN(CC)CCCCNc1ncc2cc(-c3cc(OC)cc(OC)c3)c(NC(=O)NC(C)(C)C)nc2n1` [PD173074] the “synergy / antagonism of drug” value was “significant synergy with nine or more genes”.
For `CC(C)(C)c1cnc(CSc2cnc(NC(=O)C3CCNCC3)s2)o1` [SNS-032], the “synergy / antagonism of drug” value was “strong synergies with multiple genes”.
